Data on two molecules can be found in US11135252B2, “Probiotic therapies for developmental disorders and other neurological disorders” (Baylor College of Medicine, priority 2016, dated 2021).

Assay [1] has as its system Cntnap2-deficient mice. The following applies: mice lacking Cntnap2; oxytocin (Penagarikano et al., 2015; 2011); cited from earlier work.
Assay [2] concerns oxytocin immunoreactivity in the PVN. As to the kind of experiment: Oxytocin immunofluorescence in the PVN of MHFD offspring. Type of assay: in vivo, mice. As to conditions: for oxytocin-positive cell number in the PVN: relative to heat-killed L. reuteri / control treatment. How it is done: Lactobacillus reuteri MM4-1A (ATCC-PTA-6475) and Lactobacillus johnsonii (ATCC 33200) were cultured anaerobically in MRS broth in a 90% N2, 5% CO2, 5% H2 environment. L. reuteri was heat-killed by keeping the bacteria at 80° C. for 20 minutes (Wang et al., 2010). Bacterial viability was assessed by plating and the efficacy of the heat-kill procedure was confirmed by the absence of colony growth following plating. Cultures were centrifuged, washed, and resuspended in anaerobic solution (PBS) and frozen at −80° C. until use. PBS, live or heat-killed L. reuteri were added to the drinking water, which was changed daily to minimize dosage variability. Whereas the experimental group received live bacteria, one control group received identically prepared cultures of heat-killed bacteria. A second group of control mice received water treated with PBS alone. Live and heat-killed L. reuteri were supplied at a dosage of 1×10^8 organisms/mouse/day continuously in drinking water. Mice consumed the treated water ad libitum over the treatment period. The treated drinking water for each group was replaced daily two hours prior to the onset of the dark cycle to minimize variation in microbial exposure. Behavioral assays were initiated after 4-weeks of L. reuteri or control treatment. The protocol of the L. johnsonii preparation and administration matched the L. reuteri protocol. Fecal samples for sequencing and tissue used in the immunofluorescence studies were collected at the end of the treatment.
Mice were deeply anesthetized by inhalation of isoflurane and perfused transcardially with 10 ml 0.9% phosphate-buffered saline followed by 30 ml 4% paraformaldehyde in 0.1M phosphate buffer (PFA). […] Fluorescence intensity was measured in ImageJ (NIH) by selecting regions of interest (Oxytocin- and NeuN-positive hypothalamic cell bodies). Hypothalamic oxytocin-expressing neuronal population and NeuN+ cell number was assessed in ImageJ using the following operational sequence: (1) open image file, (2) subtract background, (3) adjust threshold, (4) convert to mask, (5) watershed, (6) analyze particles. […]

In assay [3] the test system is Cntnap2-deficient mice. As to the kind of experiment: Social behavior (sociability, social novelty) in Cntnap2-deficient mice. It is filed as in vivo. How it is done:
Crawley's three-chamber test for sociability and preference for social novelty was performed as described (Silverman et al., 2010). In brief, the mouse first experienced a 10-minute period of habituation during which it was allowed to freely explore a 60×40×23 cm Plexiglass arena divided into three equally sized, interconnected chambers (Left, Center, Right). Sociability was measured during a second ten-minute period in which the subject could interact either with an empty wire cup (Empty) or a wire cup containing an age and sex-matched stranger conspecific (Mouse 1). Time spent interacting (sniffing, crawling upon) with either the empty cup or the stranger mouse contained in the other cup as well as time spent in each chamber was recorded using the AnyMaze software, by independent observers. Empty cup placement in the Left or Right chamber during the Sociability period was counterbalanced between trials. Finally, preference for social novelty was assayed by introducing a second stranger mouse (Mouse 2) into the previously the empty wire cup. Time spent in each chamber as well as time spent interacting with either Mouse 1 or Mouse 2 was recorded using the automated AnyMaze software by independent observers.
To examine whether treatment with L. reuteri could restore ASD-like behaviors in genetic models of ASD, we studied mice lacking contactin associated protein-like 2 (CNTNAP2). Mutations in CNTNAP2 have been associated with syndromic forms of ASD (Nascimento, et al., 2016; Yoo, et al., 2017; Zare, et al., 2017; el-Sobky, et al., 2004; Alarcon, et al., 2008; Sampath, et al., 2013; Chiocchetti, et al., 2015), thereby serving as a genetic model of autism in mice. Second, mice lacking Cntnap2 show ASD-like behaviors (Penagarikano, et al.).

Setting [4] is: mice lacking Cntnap2, L. reuteri in drinking water.

With `CC[C@H](C)[C@@H]1NC(=O)[C@H](Cc2ccc(O)cc2)NC(=O)[C@@H](N)CSSC[C@@H](C(=O)N2CCC[C@H]2C(=O)N[C@@H](CC(C)C)C(=O)NCC(N)=O)NC(=O)[C@H](CC(N)=O)NC(=O)[C@H](CCC(N)=O)NC1=O` [oxytocin], the social behavioral abnormalities entry in assay [1] is “rescues the social behavioral abnormalities”.

Take “Lactobacillus reuteri MM4-1A (ATCC-PTA-6475) [L. reuteri]”: the “oxytocin immunofluorescence intensity in the PVN” value in assay [2] (relative to heat-killed L. reuteri) is “significantly increased”. The “oxytocin-positive cell number in the PVN” value in assay [2] is given as “higher than in control-treated MHFD offspring”. Also, the “oxytocin-positive cell number in the PVN” value in assay [2] (listed as live L. reuteri) is “significantly increased”. Also, in assay [3] (Cntnap2-deficient mice, L. reuteri treatment), the social behavior abnormalities entry is “reverses the social behavior abnormalities”. For the same molecule, in assay [3] (setting [4]), the sociability result is “reverses the deficient sociability” and the social novelty entry is listed as “reverses”.
